experiment: recombinant barcode read abundance after kanamycin selection (control-corrected) (log10(CPM+1)); higher = more efficient recombination; sequences stand for … in AGTGCAGAGAAAATCGGCCAGTTTTCTCTGCCTGCAGTCCGCATGCCGT…AGATTTATGCAGCGGACTGCCTTTCTCCCAAAGTGATAAACCGGACAGTATCATGGACCGGTTTTCCCGGTAATCCGTATTTGCAAGGTTGGTTTCACT; site = the 11-nt target
Description: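 Pooled E. coli target-specificity screen for the IS621 bridge recombinase. Each library plasmid pairs an 11-nt target (CT core) with a bridge RNA whose target-binding loop (9-nt LTG + 4-nt RTG) is reprogrammed; the rest of the 177-nt WT IS621 bridge RNA scaffold is fixed. The plasmid is co-electroporated with a WT donor plasmid; recombinase is induced with 0.1 mM IPTG and recombinants are selected on kanamycin. Recombinant barcodes are sequenced, converted to CPM, averaged over two biological replicates and corrected by the unselected control CPM. Molecule = full bridge RNA written as DNA: LTG = specificity nt 1-9, RTG = reverse complement of specificity nt 8-11, in the WT scaffold.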
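Further: IS621 recombinase and bridge RNA in Escherichia coli cells.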

Sequence	recombinant barcode read abundance (log10)
ACTACTACTTGGGTTCTAACCTGTTGCCA (site GGTACTACTTG)	0.433
ACTAGAACTTGGGTTCTAACCTGTTGCAA (site ACTAGAACTTT)	0.402
ACTAGAACTTGGGTTCTAACCTGTTGCAA (site ACTAGGACTCT)	0.116
ACTAGCTCTTGGGTTCTAACCTGTTGCTA (site ACTAGCTCTTA)	0.145
ACTAGCTCTTGGGTTCTAACCTGTTGCTA (site ACTAGGTCTTA)	0.0229
ACTAGGACTTGGGTTCTAACCTGTTGCAG (site ACTAGAACTTT)	0.0381
ACTAGGACTTGGGTTCTAACCTGTTGCAG (site ACTAGGACTCT)	2.49
ACTAGGACTTGGGTTCTAACCTGTTGCGC (site ACTAGGACTAC)	0.571
ACTAGGACTTGGGTTCTAACCTGTTGCGC (site ACTAGGACTCC)	0.478
ACTAGGACTTGGGTTCTAACCTGTTGCGC (site ACTAGGACTGC)	2.3
ACTAGGACTTGGGTTCTAACCTGTTGCGC (site ACTAGGACTTC)	0.0123
ACTCACCCTTGGGTTCTAACCTGTTGCGG (site ACTCACCCTCC)	2.62
ACTCACCCTTGGGTTCTAACCTGTTGCGG (site CTATTAACTTA)	0.126
ACTCCGTCTTGGGTTCTAACCTGTTGCCT (site ACTCCGTCTAG)	1.28
ACTCCGTCTTGGGTTCTAACCTGTTGCCT (site ACTGCGTCTAG)	0.109
ACTCGATCTTGGGTTCTAACCTGTTGCCT (site ACTCGATCTAG)	0.595
ACTCGATCTTGGGTTCTAACCTGTTGCCT (site AGTCGATCTAA)	0.0189
ACTCGGCCTTGGGTTCTAACCTGTTGCCT (site ACTCGGCCTAC)	0.0497
ACTCGGCCTTGGGTTCTAACCTGTTGCCT (site ACTCGGCCTAG)	1.45
ACTCGTCCTTGGGTTCTAACCTGTTGCTA (site ACTCGTCCTTA)	0.584
ACTCGTCCTTGGGTTCTAACCTGTTGCTA (site GAGAAGACTAC)	0.0362

Sequence	recombinant barcode read abundance (log10)
ACTGATACTTGGGTTCTAACCTGTTGCCT (site ACTGATACTAG)	1.84
ACTGATACTTGGGTTCTAACCTGTTGCCT (site ACTGATCCTAG)	0.0466
ACTGATACTTGGGTTCTAACCTGTTGCCT (site ACTGATGCTAG)	0.313
ACTGATACTTGGGTTCTAACCTGTTGCCT (site ACTGATTCTAG)	0.241
ACTGATCCTTGGGTTCTAACCTGTTGCAT (site ACTGATCCTAT)	2.35
ACTGATCCTTGGGTTCTAACCTGTTGCAT (site TTCTTAACTCC)	0.00751
ACTGATCCTTGGGTTCTAACCTGTTGCCT (site ACTGATACTAG)	0.00756
ACTGATCCTTGGGTTCTAACCTGTTGCCT (site ACTGATCCTAG)	2.1
ACTGATCCTTGGGTTCTAACCTGTTGCCT (site ACTGATGCTAG)	0.671
ACTGATCCTTGGGTTCTAACCTGTTGCCT (site ACTGATTCTAG)	0.0263
ACTGGGTCTTGGGTTCTAACCTGTTGCGT (site ACATGGTCTAC)	0.254
ACTGGGTCTTGGGTTCTAACCTGTTGCGT (site ACTGGGTCTAC)	2.66
ACTGGGTCTTGGGTTCTAACCTGTTGCTT (site ACTGAGTCTAA)	0.782
ACTGGGTCTTGGGTTCTAACCTGTTGCTT (site ACTGGGTCTAA)	1.41
ACTGGTACTTGGGTTCTAACCTGTTGCCT (site ACGGGTACTAG)	0.161
ACTGGTACTTGGGTTCTAACCTGTTGCCT (site ACTGGTACTAG)	1.22
ACTGGTCCTTGGGTTCTAACCTGTTGCGG (site ACTGGTCCTCC)	2.93
ACTGGTCCTTGGGTTCTAACCTGTTGCGG (site GACATATCTAA)	0.0953
ACTTAGACTTGGGTTCTAACCTGTTGCCA (site ACTTAGACTAG)	0.502
ACTTAGACTTGGGTTCTAACCTGTTGCCA (site ACTTAGACTCG)	0.408
ACTTAGACTTGGGTTCTAACCTGTTGCCA (site ACTTAGACTGG)	0.0414

Sequence	recombinant barcode read abundance (log10)
ACTTAGACTTGGGTTCTAACCTGTTGCCA (site ACTTAGACTTG)	0.363
ACTTAGACTTGGGTTCTAACCTGTTGCCG (site ACTTAGACTAG)	0.287
ACTTAGACTTGGGTTCTAACCTGTTGCCG (site ACTTAGACTCG)	1.29
ACTTAGACTTGGGTTCTAACCTGTTGCCG (site ACTTAGACTGG)	0.159
ACTTAGACTTGGGTTCTAACCTGTTGCCG (site ACTTAGACTTG)	0.129
ACTTAGTCTTGGGTTCTAACCTGTTGCTA (site ACATAGTCTCA)	0.178
ACTTAGTCTTGGGTTCTAACCTGTTGCTA (site ACTTAGTCTTA)	0.277
ACTTGAGCTTGGGTTCTAACCTGTTGCAG (site ACTTGAGCTCT)	1.48
ACTTGAGCTTGGGTTCTAACCTGTTGCAG (site CACGCTCCTAC)	0.167
ACTTGTACTTGGGTTCTAACCTGTTGCAT (site ACTTGGACTAT)	0.0152
ACTTGTACTTGGGTTCTAACCTGTTGCAT (site ACTTGTACTAT)	1.22
ACTTTACCTTGGGTTCTAACCTGTTGCCT (site ACTTTACCTAG)	0.188
ACTTTACCTTGGGTTCTAACCTGTTGCCT (site CCTTTACCTAG)	0.324
ACTTTACCTTGGGTTCTAACCTGTTGCCT (site GCTTTACCTAG)	0.0495
ACTTTACCTTGGGTTCTAACCTGTTGCCT (site TCTTTACCTAG)	0.186
AGAACACCTTGGGTTCTAACCTGTTGCTT (site AGAACACCTAA)	0.525
AGAACACCTTGGGTTCTAACCTGTTGCTT (site GAGGAGTCTCG)	0.13
AGAACTACTTGGGTTCTAACCTGTTGCCT (site AGAACTACTAG)	0.384
AGAACTACTTGGGTTCTAACCTGTTGCCT (site AGGACTACTAG)	0.162
AGAACTCCTTGGGTTCTAACCTGTTGCGA (site AGAACTCCTTC)	1.03
AGAACTCCTTGGGTTCTAACCTGTTGCGA (site CTGGAGACTAA)	0.42

Sequence	recombinant barcode read abundance (log10)
AGAAGATCTTGGGTTCTAACCTGTTGCCT (site AGAAGATCTAG)	0.706
AGAAGATCTTGGGTTCTAACCTGTTGCCT (site TACCTTACTCT)	0.0563
AGAAGTCCTTGGGTTCTAACCTGTTGCAG (site AGAAGTCCTCA)	0.83
AGAAGTCCTTGGGTTCTAACCTGTTGCAG (site AGAAGTCCTCC)	0.246
AGAAGTCCTTGGGTTCTAACCTGTTGCAG (site AGAAGTCCTCG)	0.366
AGAAGTCCTTGGGTTCTAACCTGTTGCAG (site AGAAGTCCTCT)	1.56
AGAATCCCTTGGGTTCTAACCTGTTGCAT (site AGAATCCCTAT)	1.49
AGAATCCCTTGGGTTCTAACCTGTTGCAT (site ATAAACCCTAT)	0.0539
AGACAGTCTTGGGTTCTAACCTGTTGCCA (site AGACAGTCTTG)	0.311
AGACAGTCTTGGGTTCTAACCTGTTGCCA (site GACTGAGCTCC)	0.0895
AGACGTACTTGGGTTCTAACCTGTTGCCT (site AGACGTACTAG)	1.65
AGACGTACTTGGGTTCTAACCTGTTGCCT (site AGCCGTACTAG)	0.102
AGACGTACTTGGGTTCTAACCTGTTGCCT (site AGGCGTACTAG)	0.128
AGACGTACTTGGGTTCTAACCTGTTGCCT (site AGTCGTACTAG)	0.0904
AGACGTCCTTGGGTTCTAACCTGTTGCTT (site AGACATCCTAA)	0.197
AGACGTCCTTGGGTTCTAACCTGTTGCTT (site AGACCTCCTAA)	0.162
AGACGTCCTTGGGTTCTAACCTGTTGCTT (site AGACGTCCTAA)	1.03
AGACGTCCTTGGGTTCTAACCTGTTGCTT (site AGACTTCCTAA)	0.15
AGAGCTCCTTGGGTTCTAACCTGTTGCGG (site AGAGCTCCTCC)	1.28
